Test results from US20110152267A1, “Compositions and Methods for Treating Hyperproliferative Disorders” (Texas Tech University System, priority 2009, published 2011).

Tests used:
Assay type in all cases: cell-based, human
[1] = tested on: CHLA-90 pediatric neuroblastoma cell line; test: DIMSCAN cytotoxicity, fenretinide + L-threo-sphinganines 3:1 (Example B21)
Procedure: (§1) Cytotoxicity Assay—Once again, cytotoxicity is determined using the DIMSCAN assay system (R. Proffitt et al., Cytometry 24, 204-213 (1996); T. Frgala et al., Mol Cancer Ther. 6:886-97, 2007). The system employs digital imaging microscopy to quantify viable cells, which selectively accumulate fluorescein diacetate to become brightly fluorescent. The system is capable of measuring cytotoxicity over a 4-5 log dynamic range by quenching the residual fluorescence of dead and dying cells with eosin Y and quantifying the total fluorescence of viable cells using digital thresholding. Measured fluorescence is directly proportionate to the number of viable cells. A comparison of the total fluorescence of a drug-treated cell population to the fluorescence of a similar number of untreated cells yields a survival fraction. In brief, 2000 to 10,000 cells/well (depending on size and growth rates) are replicate plated into 60 wells of a 96-well tissue culture plate in 0.1 mL of whole medium and allowed to attach overnight. Drug(s) are then added in 0.05 mL of whole medium to the final concentrations indicated. Drugs (fenretinide, and various chain length L-threo-sphinganines) were tested both as single agents and in a 3:1 ratio of fenretinide:sphinganine. C18-L-threo-sphinganine, or “safingol,” was also tested and results shown for reference. There are 12 wells treated per drug concentration. Twelve wells receive drug vehicle-only to the appropriate final concentration and serve as controls for the plate. Cells are incubated for 96 hours at 37° C. in ambient air with 5% CO2. Fluorescein diacetate is then added to each well in 0.05 mL media to a final concentration of 8 microgram/mL. Cells are incubated for a further 15 minutes at 37° C. and 0.03 mL of 0.5% eosin Y is added to each well. Total fluorescence of viable cells is then measured by digital imaging microscopy. Results were graphed as the ratio of the fluoresecence of drug-treated wells to non-drug treated control wells (i.e., Survival Fraction). All tests were performed at least twice. Representative results are shown.
(§2) The Combination Index (CI) is a term to describe mathematical modeling of the pharmacologic effects on cytotoxicity (cell death) of two drugs in combination based. Cytotoxic “synergy” is defined as a cell death affect which is greater than would be expected from a simple product of the single agent cytotoxicities alone (i.e. an “additive” effect). By Chou-Talalay analysis, a CI<0.9 on a Fraction Affected (“Fa”, i.e. fraction of cells killed) indicates synergy, with smaller numbers indicating greater synergy; a CI of 0.9-1.1 signifies an additive or near-additive effect; and a CI>1.1 means the drug combination is antagonistic.
Fenretinide and L-threo-sphinganines tested in human pediatric neuroblastoma (a nerve-related, solid tumor cancer) cell line, CHLA-90.

[2] = tested on: GBM2 glioblastoma brain cancer cell line; test: DIMSCAN cytotoxicity dose-response with fenretinide, with or without D-threo-PPMP (Examples A, FIGS. 3, 9, 14, 18-20); conditions: +96 hrs
Procedure: (§3) Cytotoxicity Assay: Cytotoxicity in cell lines was determined using a fluorescence-based assay employing digital imaging microscopy (DIMSCAN)(after Fragala, et al, Mol Cancer Ther, 6:886-897, 2007). DIMSCAN quantitates viable cells which selectively accumulate fluorescein diacetate and is capable of measuring cytotoxicity over a 4-5 log dynamic range by quantifying total fluorescence per well (which is proportional to viable, clonogenic cells) after eliminating background fluorescence using digital thresholding and eosin Y quenching. Briefly, cell lines were seeded into 96-well plates in 100 µL of complete culture medium (10-20% serum) per well. Cells were incubated overnight in 2%, 5% or 20% oxygen (room air) prior to addition of drugs in […] volumes of complete medium to various final drug concentrations in replicates of 12 wells per concentration. In assays employing D-threo-PPMP, PPMP was employed at a fixed, minimally-toxic, final concentration of 10 μM in each well. Control wells received ethanol (final concentration=0.12%-0.20%) in complete medium equivalent to the maximum final ethanol concentration of drug-treated wells. Plates were incubated at various oxygen concentrations to simulate physiological hypoxia (i.e., 2% oxygen=typical solid tumor oxygen levels; 5%=bone marrow oxygen levels for leukemias; 20% room air=supraphysiological oxygen for comparison with typical laboratory culture conditions). Plates were assayed at 3-4 days after initiating drug exposure depending on the growth properties of each cell line, to allow for maximum cell death and outgrowth of surviving cells. To measure cytotoxicity, FDA (stock solution of 1 mg/ml in DMSO) was added, in 50 µL of complete medium per well, to a final concentration of 10 µg/ml. The plates were incubated for an additional 15-30 minutes at 37 C and then 30 µL of eosin Y (0.5% in normal saline) was added per well. Total fluorescence of each well was then measured using digital imaging microscopy.
(§4) FIGS. 1 to 26 illustrate the effect (Examples A1 through A26) of the claimed invention and were carried out using the procedures disclosed herein.

[3] = tested on: MOLT-4 ALL leukemia cell line; test: DIMSCAN cytotoxicity dose-response with fenretinide, with or without D-threo-PPMP (Examples A, FIGS. 6, 24-26); conditions: 2% oxygen, D-threo-PPMP fixed 10 uM, at most doses, +96 hrs
Procedure: as §3, §4

[4] = tested on: COG-LL-317 Acute Lymphoblastic Leukemia (ALL) cancer cell line; test: DIMSCAN cytotoxicity dose-response with fenretinide (Examples A, FIGS. 5, 11, 17); conditions: 5% oxygen, at one or more doses, +96 hrs
Procedure: as §3, with “microscopy. […]” for “microscopy.”

[5] = tested on: MDA-MB-231 breast adenocarcinoma cell line; test: DIMSCAN cytotoxicity, fenretinide + L-threo-sphinganines 3:1 (Example B14); conditions: MDA-MB-231, 20% O2, 96 h
Procedure: as §1, §2
(§5) Fenretinide and L-threo-sphinganines tested in human breast adenocarcinoma (breast cancer) cell lines, MCF-7 and MDA-MB-231.

[6] = tested on: MCF-7 breast adenocarcinoma cell line; test: as above; conditions: 96 h
Procedure: as §1, §2, §5

[7] = tested on: OE-19 esophageal adenocarcinoma cell line; test: DIMSCAN cytotoxicity, fenretinide + L-threo-sphinganines 3:1 (Example B19)
Procedure: as §1, §2
Fenretinide and L-threo-sphinganines tested in human esophageal adenocarcinoma (esophagus cancer) cell lines, OE-19 and OE-33.

[8] = 4-HPR 3 μM + L-threo-sphinganine 1 μM
[9] = 4-HPR 6 μM + L-threo-sphinganine 2 μM
[10] = 4-HPR 9 μM + L-threo-sphinganine 3 μM
[11] = 4-HPR 12 μM + L-threo-sphinganine 4 μM
[12] = 4-HPR 1.5 μM + L-threo-sphinganine 0.5 μM

## CCCCCCCCCCCCCCCCC[C@H](O)[C@@H](N)CO [C20, (2S,3S)-2-amino-1,3-icosanediol]
[1]; [8]
  CI: 0.5
  Fa: 0.996
[1]; [9]
  CI: 0.7
  Fa: 0.999
[1]; [10]
  CI: 1.1
  Fa: 0.999
[1]; [11]
  CI: 1.5
  Fa: 0.9999
[2]; 2% oxygen, D-threo-PPMP fixed 10 uM, at most doses
  C.I. of D-threo-PPMP with fenretinide+L-threo-sphinganine (three drug combination): < 1
[2]; at one or more doses
  C.I. (Combination Index) with fenretinide: < 1
[3]
  C.I. of D-threo-PPMP with fenretinide+L-threo-sphinganine (three drug combination): < 1
[4]
  C.I. (Combination Index) with fenretinide: < 1
[5]; [12]
  CI (Combination Index): 2.0
  Fa (fraction affected): 0.011
[5]; [8]
  CI (Combination Index): 1.1
  Fa (fraction affected): 0.190
[5]; [9]
  CI (Combination Index): 1.3
  Fa (fraction affected): 0.583
[5]; [10]
  CI (Combination Index): 1.8
  Fa (fraction affected): 0.664
[6]; [12]
  CI (Combination Index): 0.8
  Fa (fraction affected): 0.287
[6]; [8]
  CI (Combination Index): 0.4
  Fa (fraction affected): 0.852
[6]; [9]
  CI (Combination Index): 0.3
  Fa (fraction affected): 0.971
[6]; [10]
  CI (Combination Index): 0.1
  Fa (fraction affected): 0.998
[7]; [12]
  CI: 3.2
  Fa: 0.352
[7]; [8]
  CI: 6.6
  Fa: 0.438
[7]; [9]
  CI: >>1
  Fa: 0.708
[7]; [10]
  CI: >>1
  Fa: 0.771
